The text below walks through data of US9334289B2, “Cephem compound having catechol or pseudo-catechol structure” (SHIONOGI & CO., LTD., priority 2011, dated 2016).

Type in all cases: cell-based
The test system of one assay is P. aeruginosa SR24. The assay can be described thus: MIC, CLSI broth microdilution, Test Example 1. The following applies: Pseudomonas aeruginosa, SR24; Ceftazidime resistance strain; cation-adjusted Mueller Hinton broth containing human apo-transferrin; 5×10^5 cfu/mL; read-out: Minimum Inhibitory Concentration (MIC) P. aeruginosa SR24. (In broth dilution the organism is exposed to a series of concentrations in liquid medium.)

In the next assay the test system is A. baumannii SR27323. In words: MIC, CLSI broth microdilution, Test Example 1. Conditions: Acinetobacter baumannii, SR27323; OXA-23, OXA-58 carbapenemase producing strain; cation-adjusted Mueller Hinton broth containing human apo-transferrin; 5×10^5 cfu/mL; read-out: Minimum Inhibitory Concentration (MIC) A. baumannii SR27323. Put shortly: (§1)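 Read-out is the minimum inhibitory concentration (μg/mL), determined by the CLSI method with bacteria seeded at 5×10^5 cfu/mL into cation-adjusted Mueller Hinton medium supplemented with human apo-transferrin.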

A further assay concerns E. coli ATCCBAA-199. In words: MIC, CLSI broth microdilution, Test Example 1. Conditions: Escherichia coli, ATCCBAA199; SHV-3 ESBL producing strain; cation-adjusted Mueller Hinton broth containing human apo-transferrin; 5×10^5 cfu/mL; read-out: Minimum Inhibitory Concentration (MIC) E. coli ATCC BAA-199. An outline of the steps: as §1
Assay [1] relates to E. coli ATCCBAA-200. In words: MIC, CLSI broth microdilution, Test Example 1. The following applies: Escherichia coli, ATCCBAA200; SHV-4 ESBL producing strain; cation-adjusted Mueller Hinton broth containing human apo-transferrin; 5×10^5 cfu/mL; read-out: Minimum Inhibitory Concentration (MIC) E. coli ATCC BAA-200. Put shortly:
as §1

For assay [2], the system named is K. pneumoniae ATCCBAA-1705. The assay can be described thus: MIC, CLSI broth microdilution, Test Example 1. Conditions: Klebsiella pneumoniae, ATCCBAA1705; KPC-2 carbapenemase producing strain; cation-adjusted Mueller Hinton broth containing human apo-transferrin; 5×10^5 cfu/mL; read-out: Minimum Inhibitory Concentration (MIC) K. pneumoniae ATCCBAA-1705. An outline of the steps: as §1

For the next assay, the system named is P. aeruginosa SR24837. In words: MIC, CLSI broth microdilution, Test Example 1. The following applies: Pseudomonas aeruginosa, SR24837; PER-1 ESBL producing strain; cation-adjusted Mueller Hinton broth containing human apo-transferrin; 5×10^5 cfu/mL; read-out: Minimum Inhibitory Concentration (MIC) P. aeruginosa SR24837. Put shortly:
as §1

The test system of a further assay is P. aeruginosa SR27060. In words: MIC, CLSI broth microdilution, Test Example 1. The following applies: Pseudomonas aeruginosa, SR27060; IMP-1 MBL producing strain (carbapenem resistance strain); cation-adjusted Mueller Hinton broth containing human apo-transferrin; 5×10^5 cfu/mL; read-out: Minimum Inhibitory Concentration (MIC) P. aeruginosa SR27060. Put shortly:
as §1

The next assay relates to A. baumannii SR01331. The assay can be described thus: MIC, CLSI broth microdilution, Test Example 2. The following applies: Acinetobacter baumannii, SR01331; PER-1, OXA-23.51 ESBL- & OXA-type carbapenemase producing strain; cation-adjusted Iso-Sensitest broth containing human Apo-transferrin; 5×10^5 cfu/mL; read-out: Minimum Inhibitory Concentration (MIC) A. baumannii SR01331. Put shortly: (§2)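 Bacteria were inoculated at 5×10^5 cfu/mL into cation-adjusted Iso-Sensitest broth containing human Apo-transferrin. MICs (μg/mL) were then determined by broth microdilution following the CLSI method.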

The test system of another assay is E. cloacae NCTC13464. In words: MIC, CLSI broth microdilution, Test Example 2. The following applies: Enterobacter cloacae, NCTC13464; CTX-M group 9 ESBL producing strain; cation-adjusted Iso-Sensitest broth containing human Apo-transferrin; 5×10^5 cfu/mL; read-out: Minimum Inhibitory Concentration (MIC) E. cloacae NCTC 13464. Put shortly:
as §2

A further assay relates to E. coli ATCCBAA-196. The assay can be described thus: MIC, CLSI broth microdilution, Test Example 2. The following applies: Escherichia coli, ATCCBAA196; TEM-10 ESBL producing strain; cation-adjusted Iso-Sensitest broth containing human Apo-transferrin; 5×10^5 cfu/mL; read-out: Minimum Inhibitory Concentration (MIC) E. coli ATCC BAA-196. An outline of the steps:
as §2

Assay [3] relates to E. coli ATCCBAA-200. The assay can be described thus: MIC, CLSI broth microdilution, Test Example 2. Conditions: Escherichia coli, ATCCBAA200; SHV-4 ESBL producing strain; cation-adjusted Iso-Sensitest broth containing human Apo-transferrin; 5×10^5 cfu/mL; read-out: Minimum Inhibitory Concentration (MIC) E. coli ATCC BAA-200. An outline of the steps: as §2
The test system of the next assay is E. coli SR01337. The assay can be described thus: MIC, CLSI broth microdilution, Test Example 2. The following applies: Escherichia coli, SR01337; TEM-1 ESBL producing strain; cation-adjusted Iso-Sensitest broth containing human Apo-transferrin; 5×10^5 cfu/mL; read-out: Minimum Inhibitory Concentration (MIC) E. coli SR01337. Put shortly: as §2
Another assay relates to K. pneumoniae ATCC700603. In words: MIC, CLSI broth microdilution, Test Example 2. The following applies: Klebsiella pneumoniae, ATCC700603; SHV18 ESBL producing strain; cation-adjusted Iso-Sensitest broth containing human Apo-transferrin; 5×10^5 cfu/mL; read-out: Minimum Inhibitory Concentration (MIC) K. pneumoniae ATCC 700603. An outline of the steps:
as §2

In another assay the test system is P. aeruginosa SR01332. The assay can be described thus: MIC, CLSI broth microdilution, Test Example 2. The following applies: Pseudomonas aeruginosa, SR01332; VIM-11 MBL producing strain (carbapenem resistance strain); cation-adjusted Iso-Sensitest broth containing human Apo-transferrin; 5×10^5 cfu/mL; read-out: Minimum Inhibitory Concentration (MIC) P. aeruginosa SR01332. An outline of the steps:
as §2

The next assay relates to P. aeruginosa SR01335. In words: MIC, CLSI broth microdilution, Test Example 2. Conditions: Pseudomonas aeruginosa, SR01335; VIM-1 like MBL producing strain (carbapenem resistance strain); cation-adjusted Iso-Sensitest broth containing human Apo-transferrin; 5×10^5 cfu/mL; read-out: Minimum Inhibitory Concentration (MIC) P. aeruginosa SR01335. Put shortly:
as §2

Where only a bound is given, the exact number is not on record here.

For `CC(C)(O/N=C(\C(=O)N[C@@H]1C(=O)N2C(c3nnn[n-]3)=C(C[N+]3(C)[C@@H]4CC[C@H]3C[C@@H](NC(=O)c3ccc(O)c(O)c3Cl)C4)CS[C@H]12)c1nc(N)sc1Cl)C(=O)[O-].[Na+]` (stereo partly drawn) [Compound I-86], the MIC in the assay on P. aeruginosa SR24 was 0.063 µg/mL; in the assay with A. baumannii SR27323, 2 µg/mL; with E. coli ATCCBAA-199 it was 0.5 µg/mL; with E. coli ATCCBAA-200 [1], 0.5 µg/mL; in assay [2], 0.063 µg/mL; with P. aeruginosa SR24837, no more than 0.031 µg/mL. Further, the MIC in the assay with P. aeruginosa SR27060 is 0.25 µg/mL; in the assay on A. baumannii SR01331 it was 0.5 µg/mL; with E. cloacae NCTC13464, 0.5 µg/mL; with E. coli ATCCBAA-196 it was 0.125 µg/mL; in the assay on E. coli ATCCBAA-200 [3], 1 µg/mL; in the assay with E. coli SR01337, no more than 0.031 µg/mL. Further, the MIC in the assay on K. pneumoniae ATCC700603 amounted to 0.25 µg/mL; in the assay on P. aeruginosa SR01332, 8 µg/mL; with P. aeruginosa SR01335 it was 4 µg/mL.
